This is an account of results in patent US20180036292A1, “PHARMACEUTICAL COMPOSITIONS FOR THE TREATMENT OF BACTERIAL INFECTIONS” (WOCKHARDT LIMITED, priority 2016, published 2018).

Data set [1] is described as follows: Study 3: concentrations in plasma, epithelial lining fluid (ELF) and alveolar macrophages (AM) after 800 mg once daily for three days. The format is in vivo, human. Particulars: for Kp / Kp at 3 h / Kp at 6 h / Kp at 9 h / Kp at 12 h / Kp at 24 h / Kp at 48 h: both sexes, human; for Kp: oral, range over the 48-hour period after drug administration, 800 mg once daily for 3 days; for Kp at 3 h / Kp at 6 h / Kp at 9 h / Kp at 12 h / Kp at 24 h / Kp at 48 h: healthy subjects, 800 mg oral once daily for 3 days, mean ± SD; for Kp at 3 h: sampling time 3 hr after third dose; for Kp at 6 h: sampling time 6 hr after third dose; for Kp at 9 h: sampling time 9 hr after third dose; for Kp at 12 h: sampling time 12 hr after third dose; for Kp at 24 h: sampling time 24 hr after third dose; for Kp at 48 h: sampling time 48 hr after third dose. Here is the method: Healthy male and female subjects 18 years of age or older who met the study entry criteria were enrolled into the pharmacokinetic study. Each subject received 800 mg (2 tablets of 400 mg) of compound of Formula (I) administered once daily for three days, with 240 ml of drinking water at a consistent time within two hours after a standard meal and direct observation at the study site. Blood samples were collected to measure concentration of compound of Formula (I) in plasma at 3, 6, 9, 12, 24, and 48 hours following the third dose of compound of Formula (I). Similarly, bronchoscopy was done to measure concentration of compound of Formula (I) in epithelial lining fluid (ELF) and alveolar macrophages (AM) 3, 6, 9, 12, 24, and 48 hours following the third dose of compound of Formula (I). The mean (±SD) concentrations of compound of Formula (I) in plasma (total), ELF, and AM at the bronchopulmonary sampling times are illustrated in FIG. 4. […] Table 1 gives the mean (±SD) ratios of compound of Formula (I) in ELF or AM to the simultaneous total plasma concentrations. The mean ratios of ELF and AM to simultaneous total plasma concentration for compound of Formula (I) during the 48-hour period after drug administration ranged from 10 to 30 and 270 to 800, respectively.

Data set [2] is described as follows: Study 2: Phase 1 multiple ascending dose, drug concentrations in plasma and polymorphonuclear leukocytes (PMN). The format is in vivo, human. Conditions: healthy subjects, 600, 800 and 1000 mg once daily day 1 to day 7; sampling day 1 and day 7. Here is the method:
A Phase 1, randomised, double-blind, single center, placebo controlled sequential cohort study in a maximum of 3 cohort of 10 healthy male and/or female subject each was conducted. Subjects received ascending multiple doses of compound of Formula (I) (600, 800 and 1000 mg) or matching placebo once daily on day 1 to day 7. Blood sampling was performed on day 1 and day 7 to determine the drug concentrations in plasma and polymorphonuclear leukocytes (PMN) (FIG. 2 and FIG. 3). […] Blood sampling was also undertaken at intermittent days to determine the number of doses required to attain the steady state.

Setting [3] is: alveolar macrophages (AM) / plasma (total), read-out: AM to Plasma (Total) concentration ratio.
[4] abbreviates: epithelial lining fluid (ELF) / plasma (total), read-out: ELF to Plasma (Total) concentration ratio.

Read-outs that look alike come from different tables or passages of the source.

`CC[C@@H]1OC(=O)[C@H](C)C(=O)[C@H](C)[C@@H](OC2O[C@H](C)C[C@H](N(C)C)[C@H]2O)[C@](C)(OC)C[C@@H](C)C(=O)[C@H](C)[C@H]2[C@H](/C(N)=N/O[C@@H](C)c3nnc(-c4ccccn4)s3)C(=O)O[C@@]21C` (stereo partly shown) [compound of Formula (I)]: the Kp in data set [1] (alveolar macrophages (AM) / plasma (total), read-out: mean ratio of AM to simultaneous total plasma concentration) fell in the range of 270 to 800. In data set [1] (setting [3]), the Kp at 3 h stood at 274 ± 187, the Kp at 6 h turned out to be 378 ± 172, the Kp at 9 h came out at 383 ± 260 and the Kp at 12 h was determined as 791 ± 614. In data set [1] (setting [3]), the Kp at 24 h was found to be 486 ± 193 and the Kp at 48 h is 428 ± 189. Also, in data set [1] (epithelial lining fluid (ELF) / plasma (total), read-out: mean ratio of ELF to simultaneous total plasma concentration), the Kp is 10 to 30. Moreover, in data set [1] (setting [4]), the Kp at 3 h was determined as 17 ± 12, the Kp at 6 h came to 14.5 ± 8.8, the Kp at 9 h stood at 10.4 ± 6.5 and the Kp at 12 h was found to be 12.4 ± 9.3. Besides, in data set [1] (setting [4]), the Kp at 24 h stood at 17.6 ± 6.2 and the Kp at 48 h turned out to be 27.2 ± 6.5. Further, the “concentrations in ELF and AM compared with simultaneous plasma concentrations” value in data set [1] (oral 800 mg, throughout the 48-hour period after 3 days of once-daily dosing) was “significantly higher in ELF and AM than simultaneous plasma concentrations”. For the same compound, in data set [2], the “accumulation in polymorphonuclear leukocytes (PMN) in comparison to plasma” value is given as “accumulated more in polymorphonuclear leukocytes (PMN) in comparison to plasma”.
